Laboratory results from US11254640B2, “N-substituted indoles and other heterocycles for treating brain disorders” (The Regents of the University of California, priority 2019, dated 2022).
Read-outs that look alike come from different tables or passages of the source.

How the values were obtained:
Format in all cases: cell-based
5HT2A sensor [1] = test: 5HT2A sensor assay, agonist mode (sLight1.3s HEK293T stable line); details: percent relative to 5-HT at 100 uM; for 5HT2A Agonist mean @ 100 nM (%): 100 nM compound; for 5HT2A Agonist mean @ 10 μM (%): 10 μM compound; for 5HT2A Agonist mean @ 100 μM (%): 100 μM compound
Experimental: In some embodiments, hallucinogenic potential of a compound of the present invention is determined in vitro. In some embodiments, hallucinogenic potential of a compound of the present invention is determined using a 5HT2A sensor assay. In some embodiments, the 5HT2A sensor assay is in an agonist mode or an antagonist mode. In some embodiments, the 5HT2A sensor assay is in an agonist mode.
(§1) 5HT2A Sensor Assays. HEK293T (ATCC) 5HT2A sensor stable line (sLight1.3s) was generated via lentiviral transduction of HIV-EF1α-sLight1.3 and propagated from a single colony. Lentivirus was produced using 2nd generation lentiviral plasmids pHIV-EF1α-sLight1.3, pHCMV-G, and pCMV-deltaR8.2.
(§2) For the screening of the 41 compounds, sLight1.3s cells were plated in 96-well plates at a density of 40000 24-hours prior to imaging. On the day of imaging, compounds solubilized in DMSO were diluted from the 100 mM stock solution to working concentrations of 1 mM, 100 μM and 1 μM with a DMSO concentration of 1%. Immediately prior to imaging, cells growing in DMEM (Gibco) were washed 2× with HBSS (Gibco) and in agonist mode 180 μL of HBSS or in antagonist mode 160 μL of HBSS was added to each well after the final wash. For agonist mode, images were taken before and after the addition of the 20 μL compound working solution into the wells containing 180 μL HBSS. This produced final compound concentrations of 100 μM, 10 μM and 100 nM with a DMSO concentration of 0.1%. For antagonist mode, images were taken before and after addition of 20 μL of 900 nM 5-HT and again after 20 μL of the compound working solutions to produce final concentrations of 100 nM for 5HT and 100 μM, 10 μM and 100 nM for the compounds with a DMSO concentration of 0.1%. Each compound was tested in triplicates (3 wells) for each concentration (100 μM, 10 μM and 100 nM). Additionally, within each plate, 100 nM 5HT and 0.1% DMSO controls were also imaged.
(§3) Imaging was performed using the Leica DMi8 inverted microscope with a 40× objective using the FITC preset with an excitation of 460 nm and emission of 512-542 nm. For each well, the cellular membrane where the 5HT2A sensor is targeted was autofocused using the adaptive focus controls and 5 images from different regions within the well were taken with each image processed from a 2×2 binning.
(§4) For data processing, the membranes from each image was segmented and analyzed using a custom algorithm written in MATLAB producing a single raw fluorescence intensity value. For each well the 5 raw fluorescence intensity values generated from the 5 images were averaged and the change in fluorescence intensity (dFF) was calculated as: dFF=(Fsat−Fapo)/Fapo
(§5) For both agonist and antagonist modes, the fluorescence intensity values before compound addition in HBSS only were used as the Fapo values while the fluorescence intensity values after compound addition were used as the Fsat values.
(§6) For agonist mode, data are as percent activation relative to 5HT, where 0 is the average of the DMSO wells and 100 is the average of the 100 uM 5HT wells. For antagonist mode, the inactivation score was calculated as: Inactivation score=(dFFF(Compound+5HT)−dFF(5HT))/dFF(5HT)

5HT2A sensor [2] = test: 5HT2A sensor assay, antagonist mode (sLight1.3s HEK293T stable line); details: relative to 5-HT at 100 nM; for 5HT2A Antagonist mean @ 100 nM (%): 100 nM compound; for 5HT2A Antagonist mean @ 10 μM (%): 10 μM compound; for 5HT2A Antagonist mean @ 100 μM (%): 100 μM compound
Experimental: In some embodiments, the 5HT2A sensor assay is in an antagonist mode.
as §1, §2, §3, §4, §5, §6

5HT2A = target: T1, 5HT2A (Homo sapiens, UniProt P28223); test: Calcium flux assay (Calcium secondary messenger pathway); details: agonist mode
T1 construct: expressed in transfected cells
T1 sequence (P28223 whole entry): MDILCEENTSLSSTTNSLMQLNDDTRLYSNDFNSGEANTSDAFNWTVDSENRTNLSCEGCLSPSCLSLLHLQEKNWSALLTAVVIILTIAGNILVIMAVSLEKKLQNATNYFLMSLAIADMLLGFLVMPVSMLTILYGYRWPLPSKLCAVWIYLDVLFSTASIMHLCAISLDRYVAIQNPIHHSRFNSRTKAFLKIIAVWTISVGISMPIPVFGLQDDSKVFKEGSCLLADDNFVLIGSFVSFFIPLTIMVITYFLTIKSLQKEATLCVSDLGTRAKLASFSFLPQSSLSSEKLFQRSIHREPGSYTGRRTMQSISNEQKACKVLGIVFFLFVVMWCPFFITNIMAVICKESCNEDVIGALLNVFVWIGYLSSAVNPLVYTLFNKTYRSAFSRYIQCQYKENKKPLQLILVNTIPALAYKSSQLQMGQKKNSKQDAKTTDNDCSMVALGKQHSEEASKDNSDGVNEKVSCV
From the text: Calcium Flux Assay. Calcium Secondary Messenger Pathway. The Calcium No Wash^PLUS assay monitors the activation of a GPCR (e.g., 5HT2A) via Gq secondary messenger signaling in a live cell, non-imaging assay format. Calcium mobilization in PathHunter® cell lines or other cell lines stably expressing Gq-coupled GPCRs (e.g., 5HT2A) is monitored using a calcium-sensitive dye that is loaded into cells. GPCR (e.g., 5HT2A) activation by a compound results in the release of calcium from intracellular stores and an increase in dye fluorescence that is measured in real-time. In some embodiments, the ability of a compound of the present invention to modulate 5-HT2A function is determined using a calcium flux assay. In some embodiments, a compound of the present invention activates a calcium flux assay.
Calcium Secondary Messenger Pathway. Cell lines were expanded from freezer stocks according to standard procedures. Cells were seeded in a total volume of 20 μL into black-walled, clear-bottom, Poly-D-lysine coated 384-well microplates and incubated at 37° C. for the appropriate time prior to testing. Assays were performed in 1× Dye Loading Buffer consisting of 1× Dye, 1× Additive A and 2.5 mM Probenecid in HBSS/20 mM Hepes. Probenicid was prepared fresh. Cells were loaded with dye prior to testing. Media was aspirated from cells and replaced with 20 μL Dye Loading Buffer. Cells were incubated for 30-60 minutes at 37° C.
For agonist determination, cells were incubated with sample to induce response. After dye loading, cells were removed from the incubator and 10 μL HBSS/20 mM Hepes was added. 3× vehicle was included in the buffer when performing agonist dose curves to define the EC80 for subsequent antagonist assays. Cells were incubated for 30 minutes at room temperature in the dark to equilibrate plate temperature. Intermediate dilution of sample stocks was performed to generate 4× sample in assay buffer. Compound agonist activity was measured on a FLIPR Tetra (MDS). Calcium mobilization was monitored for 2 minutes and 10 μL 4× sample in HBSS/20 mM Hepes was added to the cells 5 seconds into the assay.
Compound activity was analyzed using CBIS data analysis suite (ChemInnovation, CA). For agonist mode assays, percentage activity is calculated using the following formula: % Activity=100%×(mean RFU of test sample−mean RFU of vehicle control)/(mean MAX RFU control ligand−mean RFU of vehicle control).

rat cortical neurons = test: Neurite outgrowth assay; details: Cortical neurone, 1 hour treatment at DIV 4, analysed DIV 7, fold vs DMSO control
From the text: Neurite outgrowth assay. Changes in the pattern of neurite outgrowth have been implicated in neurodegenerative disorders as well as traumatic injuries. The discovery of new compounds that can positively affect neuritogenesis are important for developing new therapeutics for neurological diseases. Measurement of neurite outgrowth of rat cortical neurons using an automated image-based assay was used to determine the neuroplastic effects of the compounds of the present invention. In some embodiments, a compound of the present invention increases the pattern of neurite outgrowth. In some embodiments, a compound of the present invention increases neurite average length compared to a control. In some embodiments, a compound of the present invention increases neurite branch points compared to a control. In some embodiments, a compound of the present invention increases neurite average length and neurite branch points compared to a control.
Neurite Outgrowth Assay. Rat cortical neurons (20,000 cells/well) were freshly isolated from embryonic day 18 rats and cultured in Neurobasal Medium (+B27). The cultured cells were plated in 96 well-plates (avoiding external wells). At DIV 4, the neurons were treated with compound or control (10 μM) for 1 hour followed by complete washout of the compound. At DIV 7, the neurons were analyzed. The experiments were performed in triplicate. Neurite outgrowth was measured analyzing the following parameters: Number of Cell Bodies, total neurite length (pixels), Root Count, Segments, Extremities Count and node points. Changes in the pattern of neurite outgrowth of the neurons were analyzed by immunocytochemistry against β-III-tubulin. Pictures were acquired by the CellInsight CX7 from Thermo Fisher and analyzed using its software. Results generated in the equipment were maximum neurite length, extremity count, root count, dendrite branch points, and total neurite length. The results were compared to DMSO control, representing the fold-change in neuronal outgrowth.

[3] = read-out: Neurite Average Length @ 10 μM
[4] = read-out: Neurite Branch Points: @ 10 μM

| Structure (SMILES) | 5HT2A Agonist mean @ 100 nM (%) (5HT2A sensor [1]) | 5HT2A Agonist mean @ 10 μM (%) (5HT2A sensor [1]) | 5HT2A Agonist mean @ 100 μM (%) (5HT2A sensor [1]) | 5HT2A Antagonist mean @ 100 nM (%) (5HT2A sensor [2]) | 5HT2A Antagonist mean @ 10 μM (%) (5HT2A sensor [2]) | 5HT2A Antagonist mean @ 100 μM (%) (5HT2A sensor [2]) | EC50 (5HT2A) | fold induction at 10 µM (rat cortical neurons; [3]) | fold induction at 10 µM (rat cortical neurons; [4]) |
| --- | --- | --- | --- | --- | --- | --- | --- | --- | --- |
| FC(F)(F)Oc1ccc2c(ccn2CCN2CCCC2)c1 [Example 50, 1-(2-(pyrrolidin-1-yl)ethyl)-5-(trifluoromethoxy)-1H-indole] | B (does not activate 5HT2A sensor assay in agonist mode) | B (does not activate 5HT2A sensor assay in agonist mode) | A (activates 5HT2A sensor assay in agonist mode) | A (inhibits 5HT response by >100%) | B (inhibits 5HT response by 75% to 100%) | A (inhibits 5HT response by >100%) | > 10 µM | 1.5 to 3 | 1.5 to 3 |
| C[C@H](Cn1ccc2cc(F)cc(F)c21)N(C)C [Example 69, (R)-1-(5,7-difluoro-1H-indol-1-yl)-N,N-dimethylpropan-2-amine] | B (does not activate 5HT2A sensor assay in agonist mode) | B (does not activate 5HT2A sensor assay in agonist mode) | A (activates 5HT2A sensor assay in agonist mode) | B (inhibits 5HT response by 75% to 100%) | B (inhibits 5HT response by 75% to 100%) | B (inhibits 5HT response by 75% to 100%) | > 10 µM | 1.5 to 3 | > 3 |
| CN(C)CCn1cnc2ccccc21 [Example 57, 2-(1H-benzo[d]imidazol-1-yl)-N,N-dimethylethan-1-amine] | B (does not activate 5HT2A sensor assay in agonist mode) | B (does not activate 5HT2A sensor assay in agonist mode) | B (does not activate 5HT2A sensor assay in agonist mode) | B (inhibits 5HT response by 75% to 100%) | A (inhibits 5HT response by >100%) | A (inhibits 5HT response by >100%) | > 10 µM | 1.5 to 3 | 1.5 to 3 |
| CC[C@H](Cn1ccc2cc(OC)ccc21)N(C)C [Example 75, (R)-1-(5-methoxy-1H-indol-1-yl)-N,N-dimethylbutan-2-amine] | B (does not activate 5HT2A sensor assay in agonist mode) | B (does not activate 5HT2A sensor assay in agonist mode) | B (does not activate 5HT2A sensor assay in agonist mode) | A (inhibits 5HT response by >100%) | A (inhibits 5HT response by >100%) | A (inhibits 5HT response by >100%) | > 10 µM | < 1.5 | < 1.5 |
| Cc1cc2cc(F)ccc2n1C[C@@H](C)N(C)C [Example 73, (R)-1-(5-fluoro-2-methyl-1H-indol-1-yl)-N,N-dimethylpropan-2-amine] | B (does not activate 5HT2A sensor assay in agonist mode) | B (does not activate 5HT2A sensor assay in agonist mode) | A (activates 5HT2A sensor assay in agonist mode) | B (inhibits 5HT response by 75% to 100%) | B (inhibits 5HT response by 75% to 100%) | A (inhibits 5HT response by >100%) | > 10 µM | 1.5 to 3 | 1.5 to 3 |
| FC(F)(F)Oc1ccc2c(ccn2CCN2CCCCC2)c1 [Example 51, 1-(2-(piperidin-1-yl)ethyl)-5-(trifluoromethoxy)-1H-indole] | B (does not activate 5HT2A sensor assay in agonist mode) | B (does not activate 5HT2A sensor assay in agonist mode) | B (does not activate 5HT2A sensor assay in agonist mode) | A (inhibits 5HT response by >100%) | A (inhibits 5HT response by >100%) | A (inhibits 5HT response by >100%) | > 10 µM | 1.5 to 3 | 1.5 to 3 |
| COc1cc2c(ccn2C[C@@H](C)N(C)C)cc1F [Example 70, (R)-1-(5-fluoro-6-methoxy-1H-indol-1-yl)-N,N-dimethylpropan-2-amine] | B (does not activate 5HT2A sensor assay in agonist mode) | B (does not activate 5HT2A sensor assay in agonist mode) | B (does not activate 5HT2A sensor assay in agonist mode) | B (inhibits 5HT response by 75% to 100%) | B (inhibits 5HT response by 75% to 100%) | A (inhibits 5HT response by >100%) | < 10 µM | 1.5 to 3 | 1.5 to 3 |
